Source: paper doi:10.1101/2021.09.30.462449v1 (biorxiv, 2021)

Columns and labels:
Experiment in all cases: biochemical
Details in all cases: read-out: % inhibition mean (Z'Lyte)
STK3 (MST2) = STK3 (MST2) (Homo sapiens, UniProt Q13188)
HIPK2 = HIPK2 (Homo sapiens, UniProt Q9H2X6)
KDR (VEGFR2) = KDR (VEGFR2) (Homo sapiens, UniProt P35968)
NIM1K = NIM1K (Homo sapiens, UniProt Q8IY84)
MAPK7 (ERK5) = MAPK7 (ERK5) (Homo sapiens, UniProt Q13164)
RPS6KB1 (p70S6K) = RPS6KB1 (p70S6K) (Homo sapiens, UniProt P23443)
DCAMKL1 (DCLK1) = DCAMKL1 (DCLK1) (Homo sapiens, UniProt O15075)
RET V804E = RET V804E (Homo sapiens, UniProt P07949, V804E)
Chain of RET V804E (P07949 whole entry V804E): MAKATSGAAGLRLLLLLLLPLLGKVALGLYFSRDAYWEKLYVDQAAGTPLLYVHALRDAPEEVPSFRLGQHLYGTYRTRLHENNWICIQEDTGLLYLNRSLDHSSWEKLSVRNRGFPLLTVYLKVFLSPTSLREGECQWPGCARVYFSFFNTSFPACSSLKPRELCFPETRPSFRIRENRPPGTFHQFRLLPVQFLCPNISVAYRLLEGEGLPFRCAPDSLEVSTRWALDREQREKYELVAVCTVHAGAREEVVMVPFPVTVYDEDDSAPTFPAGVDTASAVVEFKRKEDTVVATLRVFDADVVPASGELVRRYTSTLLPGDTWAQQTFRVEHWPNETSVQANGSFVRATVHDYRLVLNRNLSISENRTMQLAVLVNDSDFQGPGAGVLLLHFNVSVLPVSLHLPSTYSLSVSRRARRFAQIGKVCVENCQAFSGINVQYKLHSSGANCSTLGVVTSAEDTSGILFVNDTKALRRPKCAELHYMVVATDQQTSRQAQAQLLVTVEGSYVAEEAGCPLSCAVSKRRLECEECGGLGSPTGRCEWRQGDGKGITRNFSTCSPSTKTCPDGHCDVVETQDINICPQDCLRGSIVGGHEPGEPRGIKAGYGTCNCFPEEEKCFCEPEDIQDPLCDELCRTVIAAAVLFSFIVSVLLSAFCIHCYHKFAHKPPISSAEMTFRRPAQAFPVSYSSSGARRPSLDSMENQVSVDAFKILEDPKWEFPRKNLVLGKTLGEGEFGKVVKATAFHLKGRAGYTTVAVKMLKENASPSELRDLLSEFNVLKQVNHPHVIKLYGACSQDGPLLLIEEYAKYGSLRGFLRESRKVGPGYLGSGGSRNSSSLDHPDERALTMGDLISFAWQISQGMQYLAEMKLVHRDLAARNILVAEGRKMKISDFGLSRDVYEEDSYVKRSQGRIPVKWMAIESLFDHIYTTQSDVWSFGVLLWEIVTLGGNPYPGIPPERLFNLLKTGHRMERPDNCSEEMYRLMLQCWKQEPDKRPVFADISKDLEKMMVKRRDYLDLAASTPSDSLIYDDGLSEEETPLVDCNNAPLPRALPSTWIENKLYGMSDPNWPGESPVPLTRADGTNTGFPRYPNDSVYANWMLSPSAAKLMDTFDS

TYK2 = TYK2 (Homo sapiens, UniProt P29597)
MAPK14 (p38 alpha) = MAPK14 (p38 alpha) (Homo sapiens, UniProt Q16539)
SRC = SRC (Homo sapiens, UniProt P12931)
DNA-PK = DNA-PK (Homo sapiens, UniProt P78527)
RAF1 (cRAF) Y340D Y341D = RAF1 (cRAF) Y340D Y341D (Homo sapiens, UniProt P04049, Y340D/Y341D)
Chain of RAF1 (cRAF) Y340D Y341D (P04049 whole entry Y340D/Y341D): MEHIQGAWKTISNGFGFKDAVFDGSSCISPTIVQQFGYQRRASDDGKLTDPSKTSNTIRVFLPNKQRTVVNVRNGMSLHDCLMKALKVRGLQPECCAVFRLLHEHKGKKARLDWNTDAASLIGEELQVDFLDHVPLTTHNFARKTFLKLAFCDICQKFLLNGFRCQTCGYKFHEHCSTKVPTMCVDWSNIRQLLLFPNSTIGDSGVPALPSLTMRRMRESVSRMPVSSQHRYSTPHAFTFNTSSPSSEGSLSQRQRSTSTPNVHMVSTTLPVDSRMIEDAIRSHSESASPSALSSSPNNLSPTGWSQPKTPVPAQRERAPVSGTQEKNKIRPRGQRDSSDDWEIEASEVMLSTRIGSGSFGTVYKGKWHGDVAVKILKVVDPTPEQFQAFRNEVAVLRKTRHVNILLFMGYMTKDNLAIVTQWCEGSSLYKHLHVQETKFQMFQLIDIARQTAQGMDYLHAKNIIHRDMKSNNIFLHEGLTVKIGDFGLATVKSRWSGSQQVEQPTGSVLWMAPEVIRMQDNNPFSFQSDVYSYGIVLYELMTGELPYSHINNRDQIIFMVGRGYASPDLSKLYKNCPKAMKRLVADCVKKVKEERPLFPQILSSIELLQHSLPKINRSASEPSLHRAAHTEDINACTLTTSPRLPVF

BTK = BTK (Homo sapiens, UniProt Q06187)
Chain of BTK (Q06187 whole entry): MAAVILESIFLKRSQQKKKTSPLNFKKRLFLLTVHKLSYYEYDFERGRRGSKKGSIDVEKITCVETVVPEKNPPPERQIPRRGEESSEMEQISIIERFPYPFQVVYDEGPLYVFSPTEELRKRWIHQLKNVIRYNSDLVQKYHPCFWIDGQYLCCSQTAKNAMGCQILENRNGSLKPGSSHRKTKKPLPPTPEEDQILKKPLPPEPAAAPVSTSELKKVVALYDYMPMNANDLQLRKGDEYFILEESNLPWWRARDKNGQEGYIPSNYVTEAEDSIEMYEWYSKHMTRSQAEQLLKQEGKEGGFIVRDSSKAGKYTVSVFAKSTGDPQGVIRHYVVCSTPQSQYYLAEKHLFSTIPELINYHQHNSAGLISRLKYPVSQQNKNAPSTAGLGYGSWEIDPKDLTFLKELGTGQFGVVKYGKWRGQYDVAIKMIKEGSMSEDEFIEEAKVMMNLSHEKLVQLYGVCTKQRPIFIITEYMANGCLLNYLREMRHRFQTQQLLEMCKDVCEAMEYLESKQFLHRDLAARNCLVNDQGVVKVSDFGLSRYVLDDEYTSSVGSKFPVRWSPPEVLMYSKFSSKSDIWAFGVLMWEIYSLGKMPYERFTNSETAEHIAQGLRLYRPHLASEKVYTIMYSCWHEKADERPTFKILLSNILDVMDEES

STK22D (TSSK1) = STK22D (TSSK1) (Homo sapiens, UniProt Q9BXA7)
MST1R (RON) = MST1R (RON) (Homo sapiens, UniProt Q04912)
GRK7 = GRK7 (Homo sapiens, UniProt Q8WTQ7)
Chain of GRK7 (Q8WTQ7 whole entry): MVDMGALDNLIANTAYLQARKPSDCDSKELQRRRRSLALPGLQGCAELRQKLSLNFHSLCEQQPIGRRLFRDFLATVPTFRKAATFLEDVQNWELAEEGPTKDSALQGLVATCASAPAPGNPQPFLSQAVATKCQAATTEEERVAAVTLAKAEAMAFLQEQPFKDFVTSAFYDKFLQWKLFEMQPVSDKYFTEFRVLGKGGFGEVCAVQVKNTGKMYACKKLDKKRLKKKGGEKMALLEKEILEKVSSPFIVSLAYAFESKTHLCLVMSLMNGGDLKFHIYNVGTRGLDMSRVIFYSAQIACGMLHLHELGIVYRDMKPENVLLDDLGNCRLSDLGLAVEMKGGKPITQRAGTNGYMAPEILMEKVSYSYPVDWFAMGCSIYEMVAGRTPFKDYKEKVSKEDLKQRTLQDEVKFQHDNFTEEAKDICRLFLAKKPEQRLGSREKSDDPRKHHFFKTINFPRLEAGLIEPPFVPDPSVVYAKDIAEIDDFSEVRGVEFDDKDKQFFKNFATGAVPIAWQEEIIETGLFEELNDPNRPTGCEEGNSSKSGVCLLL

CSNK2A2 (CK2 alpha 2) = CSNK2A2 (CK2 alpha 2) (Homo sapiens, UniProt P19784)
RPS6KB2 (p70S6Kb) = RPS6KB2 (p70S6Kb) (Homo sapiens, UniProt Q9UBS0)
CAMK2A (CaMKII alpha) = CAMK2A (CaMKII alpha) (Homo sapiens, UniProt Q9UQM7)
CDK18/cyclin Y = CDK18/cyclin Y (Homo sapiens, UniProt Q07002)
TYRO3 (RSE) = TYRO3 (RSE) (Homo sapiens, UniProt Q06418)
Chain of TYRO3 (RSE) (Q06418 whole entry): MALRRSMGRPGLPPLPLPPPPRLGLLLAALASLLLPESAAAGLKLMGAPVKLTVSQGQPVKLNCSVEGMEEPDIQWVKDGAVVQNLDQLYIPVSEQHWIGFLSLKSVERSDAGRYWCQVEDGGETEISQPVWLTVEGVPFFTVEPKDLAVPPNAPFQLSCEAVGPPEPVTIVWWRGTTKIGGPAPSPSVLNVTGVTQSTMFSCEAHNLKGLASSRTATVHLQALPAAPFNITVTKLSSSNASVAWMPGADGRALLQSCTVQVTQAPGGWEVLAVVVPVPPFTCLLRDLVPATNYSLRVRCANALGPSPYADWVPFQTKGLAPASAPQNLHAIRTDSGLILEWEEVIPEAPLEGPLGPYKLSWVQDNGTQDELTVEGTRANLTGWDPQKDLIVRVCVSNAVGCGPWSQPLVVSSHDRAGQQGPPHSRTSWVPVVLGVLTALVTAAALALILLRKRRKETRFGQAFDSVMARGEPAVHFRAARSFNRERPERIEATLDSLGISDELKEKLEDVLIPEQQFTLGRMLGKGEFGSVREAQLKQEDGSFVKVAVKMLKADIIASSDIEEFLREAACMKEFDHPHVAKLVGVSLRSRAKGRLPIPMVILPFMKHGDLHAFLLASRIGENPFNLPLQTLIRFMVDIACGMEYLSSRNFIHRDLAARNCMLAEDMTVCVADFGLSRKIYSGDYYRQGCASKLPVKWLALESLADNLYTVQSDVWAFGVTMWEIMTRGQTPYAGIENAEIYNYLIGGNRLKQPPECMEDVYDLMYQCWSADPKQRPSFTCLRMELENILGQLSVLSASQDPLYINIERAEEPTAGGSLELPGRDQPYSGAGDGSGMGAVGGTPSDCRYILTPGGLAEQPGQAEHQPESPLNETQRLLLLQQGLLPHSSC

CDKL5 = CDKL5 (Homo sapiens, UniProt O76039)
PDGFRA V561D = PDGFRA V561D (Homo sapiens, UniProt P16234, V561D)
INSRR (IRR) = INSRR (IRR) (Homo sapiens, UniProt P14616)
PAK6 = PAK6 (Homo sapiens, UniProt Q9NQU5)
CHEK1 (CHK1) = CHEK1 (CHK1) (Homo sapiens, UniProt O14757)
FES (FPS) = FES (FPS) (Homo sapiens, UniProt P07332)

Chain of HIPK2 (Q9H2X6 whole entry): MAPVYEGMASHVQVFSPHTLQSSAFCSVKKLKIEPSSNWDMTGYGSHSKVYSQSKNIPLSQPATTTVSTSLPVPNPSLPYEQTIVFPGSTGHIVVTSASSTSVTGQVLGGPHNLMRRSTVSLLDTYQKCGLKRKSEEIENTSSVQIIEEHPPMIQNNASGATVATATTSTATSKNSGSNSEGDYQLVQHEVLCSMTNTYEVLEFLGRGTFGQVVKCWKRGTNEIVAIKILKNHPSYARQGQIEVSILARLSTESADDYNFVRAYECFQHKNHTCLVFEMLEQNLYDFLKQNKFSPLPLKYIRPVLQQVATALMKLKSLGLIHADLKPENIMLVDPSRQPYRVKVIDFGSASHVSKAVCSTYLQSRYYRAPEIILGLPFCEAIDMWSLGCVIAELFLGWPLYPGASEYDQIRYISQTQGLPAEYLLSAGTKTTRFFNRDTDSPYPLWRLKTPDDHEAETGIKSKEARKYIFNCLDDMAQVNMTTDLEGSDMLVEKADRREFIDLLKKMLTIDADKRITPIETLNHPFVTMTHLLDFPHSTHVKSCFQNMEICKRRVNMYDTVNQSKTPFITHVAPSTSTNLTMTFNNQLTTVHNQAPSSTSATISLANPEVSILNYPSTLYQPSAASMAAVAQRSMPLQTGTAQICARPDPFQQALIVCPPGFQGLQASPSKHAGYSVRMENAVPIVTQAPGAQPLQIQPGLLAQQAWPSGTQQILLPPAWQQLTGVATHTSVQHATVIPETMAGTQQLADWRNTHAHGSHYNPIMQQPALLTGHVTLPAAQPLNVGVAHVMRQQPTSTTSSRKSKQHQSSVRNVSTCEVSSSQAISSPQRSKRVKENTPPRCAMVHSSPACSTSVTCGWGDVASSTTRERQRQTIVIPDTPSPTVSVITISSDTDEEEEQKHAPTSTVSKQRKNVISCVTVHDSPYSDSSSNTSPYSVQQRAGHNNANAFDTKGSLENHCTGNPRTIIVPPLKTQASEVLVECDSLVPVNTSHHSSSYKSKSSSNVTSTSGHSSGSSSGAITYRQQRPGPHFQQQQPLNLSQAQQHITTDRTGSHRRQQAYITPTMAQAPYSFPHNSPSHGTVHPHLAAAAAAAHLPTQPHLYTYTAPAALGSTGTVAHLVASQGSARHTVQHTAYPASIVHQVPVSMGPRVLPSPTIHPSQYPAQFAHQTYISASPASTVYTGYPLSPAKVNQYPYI

**Q.** For `COc1ccc2nc3cc(Cl)ccc3c(Nc3cc(CN4CCCC4)c(O)c(CN4CCCC4)c3)c2n1` [Pyronaridine, 4-[(7-Chloro-2-methoxybenzo[b][1,5]naphthyridin-10-yl)amino]-2,6-bis(1-pyrrolidinylmethyl)phenol phosphate (1:4)], which inhibition at 1 µM (STK3 (MST2)) is on record?
**A.** The inhibition at 1 µM was -2%.

**Q.** What about the inhibition at 1 µM (HIPK2) of the same molecule?
**A.** The inhibition at 1 µM was -1%.

**Q.** And the inhibition at 1 µM (KDR (VEGFR2))?
**A.** Its inhibition at 1 µM is 7%.

**Q.** And the inhibition at 1 µM (NIM1K)?
**A.** Its inhibition at 1 µM is -2%.

**Q.** What about the inhibition at 1 µM (MAPK7 (ERK5)) of the same molecule?
**A.** The inhibition at 1 µM was 5%.

**Q.** And the inhibition at 1 µM (RPS6KB1 (p70S6K))?
**A.** The inhibition at 1 µM was 3%.

**Q.** What about the inhibition at 1 µM (DCAMKL1 (DCLK1)) of the same molecule?
**A.** Its inhibition at 1 µM is 0%.

**Q.** And the inhibition at 1 µM (RET V804E)?
**A.** The inhibition at 1 µM was 2%.

**Q.** And the inhibition at 1 µM (TYK2)?
**A.** Its inhibition at 1 µM is 0%.

**Q.** What about the inhibition at 1 µM (MAPK14 (p38 alpha)) of the same molecule?
**A.** Its inhibition at 1 µM is 1%.

**Q.** What about the inhibition at 1 µM (SRC) of the same molecule?
**A.** The inhibition at 1 µM was 14%.

**Q.** And the inhibition at 1 µM (DNA-PK)?
**A.** Its inhibition at 1 µM is 5%.

**Q.** What about the inhibition at 1 µM (RAF1 (cRAF) Y340D Y341D) of the same molecule?
**A.** The inhibition at 1 µM was -9%.

**Q.** And the inhibition at 1 µM (BTK)?
**A.** The inhibition at 1 µM was 9%.

**Q.** And the inhibition at 1 µM (STK22D (TSSK1))?
**A.** The inhibition at 1 µM was 6%.

**Q.** What about the inhibition at 1 µM (MST1R (RON)) of the same molecule?
**A.** Its inhibition at 1 µM is 2%.

**Q.** What about the inhibition at 1 µM (GRK7) of the same molecule?
**A.** Its inhibition at 1 µM is 4%.

**Q.** And the inhibition at 1 µM (CSNK2A2 (CK2 alpha 2))?
**A.** Its inhibition at 1 µM is 5%.

**Q.** And the inhibition at 1 µM (RPS6KB2 (p70S6Kb))?
**A.** Its inhibition at 1 µM is -4%.

**Q.** And the inhibition at 1 µM (CAMK2A (CaMKII alpha))?
**A.** The inhibition at 1 µM was 4%.

**Q.** What about the inhibition at 1 µM (CDK18/cyclin Y) of the same molecule?
**A.** The inhibition at 1 µM was 1%.

**Q.** What about the inhibition at 1 µM (TYRO3 (RSE)) of the same molecule?
**A.** The inhibition at 1 µM was -5%.

**Q.** What about the inhibition at 1 µM (CDKL5) of the same molecule?
**A.** The inhibition at 1 µM was 4%.

**Q.** What about the inhibition at 1 µM (PDGFRA V561D) of the same molecule?
**A.** The inhibition at 1 µM was 2%.

**Q.** And the inhibition at 1 µM (INSRR (IRR))?
**A.** The inhibition at 1 µM was -1%.

**Q.** What about the inhibition at 1 µM (PAK6) of the same molecule?
**A.** The inhibition at 1 µM was -2%.

**Q.** And the inhibition at 1 µM (CHEK1 (CHK1))?
**A.** The inhibition at 1 µM was 8%.

**Q.** And the inhibition at 1 µM (FES (FPS))?
**A.** The inhibition at 1 µM was -10%.
